Measured values reported in patent publication US10980735B2, “Externally-applied dermal preparation composition containing extract of green tea cultivated under extreme shading” (AMOREPACIFIC CORPORATION, priority 2016, dated 2021).

How the values were obtained:
elastase type III = target: T1, elastase type III (Sus scrofa, UniProt P00772); experiment: Inhibitory effect of elastase activity; format: biochemical; conditions: EGCG 250 μM as positive control; 25° C., 15 minutes, pH 8.0
T1 construct: purchased Sigma-Aldrich, U.S.A. E0127
Method: The inhibitory effect of elastase activity of the extract of green tea cultivated by extreme light-shielding on anti-aging was measured in comparison with that of EGCG. The elastase and the substrate used herein were purchased from Sigma-Aldrich, […]0127). The inhibitory function of elastase activity was tested according to the following method. In a 96-well plate, […] (200 μL) and 50 μL of a 20 μg/mL elastase type III solution were mixed with a […] Tris-HCL buffer solution (pH 8.0). EGCG 250 μM was used as a positive control, and purified water was used as a non-treated group, which was a negative control. […] After completion of the reaction, the absorbance at the wavelength of 415 nm was measured. […] The inhibitory function of elastase was calculated according to the following Mathematical Formula 2, and the results are shown in Table 10. […] A: Absorbance at the wavelength of 415 nm in the absence of the test material and in the presence of enzyme B: Absorbance at the wavelength of 415 nm in the absence of the test material and enzyme C: Absorbance at the wavelength of 415 nm in the presence of the test material and enzyme D: Absorbance at the wavelength of 415 nm in the presence of the test material and in the absence of enzyme

collagenase (MMP-1) = experiment: Collagenase (MMP-1) production in human fibroblasts (ELISA); format: cell-based; conditions: 10 μg/ml, 24 hours, non-treated group = 100
Method: The collagenase production inhibitory effect of the present invention on wrinkle improvement was measured in comparison with retinoic acid.
Human fibroblasts were seeded at 5,000 cells/well in a 96-well microtiter plate filled with a Dulbecco's modified eagle's medium (DMEM) containing 2.5% fetal bovine serum and cultured in a 5% CO2 incubator at 37° C. until they grew by about 70 to 80%. The cells were treated with the extracts of Examples 1 and 2 and Comparative Examples 1 and 3 or retinoic acid at a concentration of 10 μg/ml for 24 hours, and the cell culture was collected.
The production yield of collagenase in the collected cell culture was measured using a collagenase measurement instrument commercially available (Catalog #. RPN 2610, manufactured by Amersham Pharma Inc., USA). […]
The absorbance of the yellow-colored 96-well plate was measured at 405 nm with a spectrophotometer, and the expression level of collagenase was calculated according to the following Mathematical Formula 1. At this time, the absorbance of the cell culture collected from the group not treated with the composition was considered as the control group. Expression level of collagenase (%)=Absorbance of substance-treated cell group/Absorbance of control group×100 [Mathematical Formula 1]

T1 sequence (P00772 27-266): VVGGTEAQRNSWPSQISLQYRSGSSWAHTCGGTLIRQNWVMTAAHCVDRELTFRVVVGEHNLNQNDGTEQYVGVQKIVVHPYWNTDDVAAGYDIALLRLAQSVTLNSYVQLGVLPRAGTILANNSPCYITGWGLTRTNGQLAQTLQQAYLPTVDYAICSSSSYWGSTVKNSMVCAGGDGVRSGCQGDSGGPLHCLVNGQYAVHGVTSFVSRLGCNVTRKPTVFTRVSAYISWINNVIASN

O=C(O[C@@H]1Cc2c(O)cc(O)cc2O[C@@H]1c1cc(O)c(O)c(O)c1)c1cc(O)c(O)c(O)c1 [EGCG]
Inhibition level of elastase activity (elastase type III): 65%

CC1=C(/C=C/C(C)=C/C=C/C(C)=C/C(=O)O)C(C)(C)CCC1 [Retinoic acid, retinoic acid]
Expression level of collagenase (collagenase (MMP-1)): 75%
